Measurements taken from patent US20090214500A1, “PREVENTION AND TREATMENT OF OSTEOCHONDROSIS IN ANIMALS AND HUMANS” (U.S. Borax Inc., priority 2005, published 2009).
“Also recorded” adds a separate entry of the source.

Legend:
Duroc and Yorkshire pigs = assay: Boron supplementation and OC-associated lameness in swine (Example 1); type: in vivo, pig
Description: The basal diet consisted of commercial corn-soy diet containing 10 ppm boron.
Test diet group B was fed a basal diet plus 25 mg/kg boron as sodium borate decahydrate (borax). Test diet group A was fed a basal diet plus 25 mg/kg boron as sodium borate decahydrate (borax) and 250 mg/kg ascorbic acid.
Pigs were weighed at the beginning of the study, 4 weeks later and every 3 weeks until the end of the study. Animals were scored for soundness on a 5-point scale at each weighing. (Five-point scale: 1=no soundness defects; 2=minor soundness issues but still sound enough for retention as breeding animal; 3=not sound enough for retention for breeding but still marketable; 4=unsound, likely to be rejected at slaughter; 5=severely lame, requiring euthanasia for humane reasons.) Grading was done by the caretaker and the investigator at all weighing times. An experienced independent treatment-blind rater also evaluated the soundness of each animal and the ratings he provided were compared with the ratings of the caretaker and investigator by use of Cohen's Kappa test.
The animals were housed in a modern curtain sided barn with deep straw bedding, with ad libitum access to feed and water. Waterers and feeders were on a concrete pad but the remainder of the flooring was deep straw over a ground limestone and sand base. Floor space allowances exceeded the recommendations of the Guide for the Care and Use of Agricultural Animals in Agricultural Research and Teaching, First Revised Edition, 1999. Federation of Animal Science Societies. Savoy, Ill.
The basal diet (no boron supplemented) was analysed and found to contain boron at the rate of 10 ppm which is typical for a corn-soybean meal based diet.
At the end of the study the pigs were transported to a laboratory where they were euthanized and necropsied. […]
At necropsy, samples of liver, heart, kidney, fat, skeletal muscle, proximal tibia, blood, and the rostral snout were retained and frozen at −40° C. prior to chemical analysis. All joints of the axial skeleton were evaluated for the presence of gross lesions of osteochondrosis and graded on a 5 point scale. […]
Mean joint lesion scores, growth rate and soundness scores by treatment and by factors boron and ascorbate were compared using an analysis of variance and t-test as appropriate. Soundness scores were dichotomised into binary categorical variables for lameness (soundness score>2) and for absence of defects (soundness<2), and the binary variables analysed by chi-square and logistic regression.
Tissue specimens stained with H&E were examined microscopically for the presence of lesions of osteochondrosis. […] Each tissue section was scored by a treatment-blind board-certified pathologist.

sows [1] = assay: Sow and litter trial in a commercial swine operation during a PRRSV outbreak; type: in vivo, pig; conditions: sows given oral 1 mg boron per pound BW per day
Description: To test the effect of boron on sows and their litters, a trial was established in a large commercial swine operation during an outbreak of porcine viral reproductive and respiratory disease (PRRSV). Boron was administered orally to a group of 51 sows individually housed in crates at the rate of 1 mg boron per pound BW per day beginning 1 week prior to farrowing and continuing until the piglets were weaned at 14 days of age. […] Boron treatment was supplied as a single daily dosing and was discontinued at weaning. All sows were fed a standard commercial sow diet.

[2] = type: in vivo; conditions: one pig of about 85 pounds kept on boron 50 ppm plus ascorbate 125 ppm
Description: (§1) Boron was added to the diet of sows at 1 mg/kg body weight as boric acid. […] Among a group of 95 piglets the birth to weaning mortality was 2 piglets. The usual mortality for this farm was about 5 to 7%. These piglets remained on boron 50 ppm plus ascorbate 125 ppm. One pig was euthanized and examined at a weight of about 85 pounds. […] All bones of the appendicular skeleton were sectioned on the band saw.

pigs [3] = assay: 3-NPB with or without supplemental boron in pigs, lameness and joint lesions; conditions: for Clinical Lameness Score Normal, count of pigs / Clinical Lameness Score Visible Lameness, count of pigs: 5 pigs
sows [4] = assay: Preliminary pilot study, oral boron supplement to gestating and lactating sows; conditions: sows given oral 1 mg boron per kg body weight; first 600 pigs, preliminary analysis
sows [5] = assay: Observation in sows fed 50 ppm supplemental boron in late gestation and early lactation; conditions: sow diets with 50 ppm supplemental boron
sows [6] = type: in vivo
Description: as §1

pigs [7] = conditions: 50 ppm boron as boric acid
From the text: An Iowa farm treated a group of about 100 pigs with 50 ppm boron as boric acid.

[8] = 50 ppm added B in diet, 28 days, 12 pens
[9] = supplemental boron 50 mg/kg vs 0, p<0.05
[10] = boron supplementation 50 ppm together with 3-NPB 1 gram daily × 10 days
[11] = boron supplementation 50 ppm, 3-NPB none

## [B] [Boron]
Duroc and Yorkshire pigs; basal diet plus 25 mg/kg boron as sodium borate decahydrate (borax), with or without 250 mg/kg ascorbic acid
  joint health compared with basal diet with no supplemental boron (FIG. 1): healthier joints
Duroc and Yorkshire pigs; growing swine, 25 mg/kg boron as borax in feed
  incidence of osteochondrosis-associated lameness: effective in reduction of the incidence of osteochondrosis-associated lameness
Duroc and Yorkshire pigs; pigs, supplemental boron 25 ppm to 50 ppm in feed, FIGS. 1, 3 and 4
  occurrence of osteochondrosis (OC): reduction in the occurrence of osteochondrosis; also recorded: significant reduction in the occurrence of OC
Duroc and Yorkshire pigs; rapidly growing swine, 25 mg/kg boron as borax in feed, 25 mg/kg
  soundness scores / lameness associated with early rapid growth (FIG. 3): useful in cartilage protection and prevention of lameness; also recorded: reduction of soundness scores associated with early growth
Sows [1]
  effect on litter size at birth: no effects
  effect on piglet birth weight: no effects
  likelihood to conceive relative to control sows: 1.2 times
  return to estrus, average days quicker than control sows: 1.6 days
Sows [1]; from 1 week prior to farrowing until weaning
  piglet mortality: 15.2%
Sows [1]; from 1 week prior to farrowing until weaning at 14 days
  piglet weight at 12 days of age: 9.01 lbs
[2]
  bone mineralization at necropsy: excellent mineralization
  joint abnormalities at necropsy: No abnormalities were observed in any of the joints
Crossbred pigs; [8]
  Average daily gain (grams per day): 549 grams per day
  Avg. daily feed intake: 1270
  Feed Conversion Ratio (feed/gain): 2.32 feed/gain
Crossbred pigs; boron added to the diet, compared with no added boron
  reduction of phosphorus excretion per unit of production: 15%
Crossbred pigs; [9]
  effect on average daily gain: increased
  effect on fecal phosphorus excretion per unit of growth: reduced
  effect on feed conversion ratio: improved
  effect on phosphorus digestibility: improved
Crossbred pigs; supplemental boron 50 mg/kg vs 0, p>0.20
  effect on daily feed intake: not significantly modified
Pigs [3]; [10]
  Clinical Lameness Score Normal, count of pigs: 4
  Clinical Lameness Score Visible Lameness, count of pigs: 1
Pigs [3]; [11]
  Clinical Lameness Score Normal, count of pigs: 5
  Clinical Lameness Score Visible Lameness, count of pigs: 0
Pigs [3]; chi-square analysis
  effect of supplemental boron in preventing the lameness induced by 3-NPB: significant effect; also recorded: could be prevented
Pigs [3]; supplemental boron 50 ppm when 3-NPB was provided
  pigs that developed lameness: one in 5
Pigs [3]; supplemental boron, no 3-NPB
  prevalence and severity of osteochondrosis lesions in shoulder, stifle, hock and elbow joints: lowest prevalence of lesions and the lowest severity
Sows [4]
  piglet weight at 12 days of age: 8.5 pounds
  pre-weaning mortality: 16%
Sows [5]
  piglet quality as assessed by uniformity, growth, and general thrift: improved
  pre-weaning piglet mortality: reduced

## OB(O)O [boric acid]
Sows [6]; pig, in vivo
  birth to weaning mortality: 2 piglets
Sows [6]; sows, boron 1 mg/kg body weight as boric acid in diet
  outcome of three noticeably and seriously lame sows: became perfectly sound
Pigs [7]
  growth rate: excellent growth rate
Pigs [7]; estimated previous rate about 25 to 30%
  lameness/unsoundness rate in the test group: zero
Pigs [7]; about 100 pigs
  pigs developing signs of lameness or unsoundness: None
